Patent US20190381128A1, “GLP-1 Secretagogue and Composition” (MORINAGA MILK INDUSTRY CO., LTD., priority 2017, published 2019)

Experiments:
GLUTag cells [1] = test: GLP-1 secretion cell assay using GLUTag cells (ELISA of culture supernatant); format: cell-based, mouse; conditions: for GLP-1 secretion stimulating activity on GLUTag cells, ratio to blank group: Table 8; for GLP-1 secretion stimulating activity in comparison with the blank group: Dunnett t-test
GLUTag cells [2] = test: as above; format: cell-based, mouse
Protocol: Each sample was dissolved in Milli Q water and a solution having a protein concentration of 7.5 mg/mL was prepared by the Bradford method. The solution was adjusted to pH 2.0, which is the same pH as in the human stomach, with a 1 mol/L hydrochloric acid, then pepsin (Pep, Sigma-Aldrich; in 1 mM HCL) was added in an amount of 1/12.5 (w/w) relative to the proteins, and the mixture was shaken in a 37° C. thermostat at 140 rpm for 30 minutes. Then, the pH was adjusted to 7.0 with a 1 mol/L sodium hydrogen carbonate solution to stop the digestion reaction of pepsin. Subsequently, pancreatin (Pan, Sigma-Aldrich; in 0.1 M NaHCO3) was added in an amount of 1/62.5 (w/w) relative to the proteins, and the mixture was shaken in a 37° C. thermostat at 140 rpm for a desired time (5 minutes, 10 minutes, 15 minutes, 30 minutes, 45 minutes, 60 minutes, 120 minutes, or overnight). After that, with heat at 90° C. for 3 minutes, the digestion reaction by pancreatin was stopped. The solution after digestion was lyophilized and stored at 4° C. The digestion reactions simulated the state of digestion that a micellar casein and various casein materials taken in the body undergo in the gastrointestinal tract.
GLUTag cells (see, for example, Food Funct., 2015, vol. 6, p. 2525-2534) were cultured on a culture medium containing 10% fetal bovine serum (Dulbecco's modified Eagle's medium (DMEM), GIBCO) at 37° C. in a 5% CO2 incubator for 2 to 3 days into a subconfluent layer. Then, the culture medium was removed, and the cells were suspended twice with HEPES buffer (20 mM HEPES(Sigma), 140 mM NaCl (Wako), 4.5 mM KCl (Wako), 10 mM Glucose (Wako), 1.2 mM MgCl2 (Wako), 1.2 mM CaCl2 (Wako), 0.1% BSA (Sigma), pH7.4).
The lyophilized sample of (1) was dissolved with HEPES buffer so as to give a concentration of 5 mg/mL, and 80 μL of the resulting solution was added to each well of a 48-well culture plate containing the GLUTag cells cultured therein and the cells were incubated at 37° C. for […]. After the treatment, the culture supernatant was collected and was subjected to centrifugation at 800 g at 4° C. for 5 minutes and the resulting supernatant was stored at −80° C. as an ELISA measurement sample. The amount of GLP-1 in the supernatant was measured using ELISA (Millipore) according to a protocol recommended by the manufacturer. The amount of GLP-1 was represented as a relative amount to 100% of that of a group treated only with HEPES buffer (blank group). The number of samples was always three (n=3).
The lyophilized sample of (1) was subjected to an assay using GLUTag cells by the same method and conditions as in Example 1 and the amount of GLP-1 secreted was represented as a relative amount to 100% of that of a blank group. The number of samples was always three (n=3).
The lyophilized sample of (1) was subjected to an assay using GLUTag cells by the same method and conditions as in Example 1, and the amount of GLP-1 secreted was measured as a relative amount to 100% of that of a blank group, provided that the digested product of the κ-casein material sample was diluted at a concentration of 5 mg/mL or 0.5 mg/mL in dissolution in HEPES buffer. A glycomacropeptide (CGMP: from Arla) was also provided as a sample and the standard sample was dissolved as it was in HEPES buffer at a concentration of […]. In the assay, GLUTag cells obtained through depolarizing stimulation with 70 mM KCl were used as a positive control. The amount of GLP-1 secreted was represented as a relative amount to 100% of that of a blank group. The number of samples was always three or four (n=3 to 4).
The lyophilized sample of (1) was subjected to an assay using GLUTag cells by the same method and conditions as in Example 1, and the amount of GLP-1 secreted was represented as a relative amount to 100% of that of a blank group. The number of samples was always three (n=3). […]

[3] = synthesized peptide 1 mM in HEPES buffer
[4] = synthesized peptide 5 mM in HEPES buffer

Row | Substance | GLP-1 secretion stimulating activity on GLUTag cells, ratio to blank group (GLUTag cells [1]; [3]) | GLP-1 secretion stimulating activity on GLUTag cells, ratio to blank group (GLUTag cells [1]; [4]) | also measured
1 | YQKFPQYL (peptide 7) [SEQ ID NO: 7, peptide fragment found in both micellar casein hydrolysate and casein hydrolysate, synthesized] | 160.8% | 87.1% | –
2 | LEDSPEVIESPPEINT (peptide 5) [SEQ ID NO: 5, peptide fragment detected in micellar casein digested product, synthesized] | 133.9% | 136.9% | –
3 | SRYPSYGLN (peptide 6) [SEQ ID NO: 6, peptide fragment found in both micellar casein hydrolysate and casein hydrolysate, synthesized] | 123.6% | 149.7% | –
4 | HQGLPQEVLNE (peptide 4) [SEQ ID NO: 4, peptide fragment detected in micellar casein digested product, synthesized] | 158.9% | 115.6% | –
5 | YPVEPFTESQ (peptide 3) [SEQ ID NO: 3, peptide fragment detected in micellar casein digested product, synthesized] | 168.7 (*) % | 143.5% | GLP-1 secretion stimulating activity in comparison with the blank group (GLUTag cells [1]; peptide 1 mM): significantly higher
6 | HIQKEDVPSE (peptide 2) [SEQ ID NO: 2, peptide fragment detected in micellar casein digested product, synthesized] | 141.8% | 200.5 (*) % | GLP-1 secretion stimulating activity in comparison with the blank group (GLUTag cells [1]; peptide 5 mM): significantly higher
7 | Glycomacropeptide | – | – | GLP-1 secretion stimulating activity on GLUTag cells, ratio to blank group (GLUTag cells [2]; Table 4, non-degraded (glycomacropeptide dissolved as it was in HEPES buffer)): 81.8%
8 | GPVRGPFPIIV (peptide 1) [SEQ ID NO: 1, peptide fragment detected in micellar casein digested product, synthesized] | 126.0% | 254.8 (*) % | GLP-1 secretion stimulating activity in comparison with the blank group (GLUTag cells [1]; peptide 5 mM): significantly higher
9 | κ-Casein: κ-casein from bovine milk (from Sigma-Aldrich) | – | – | GLP-1 secretion stimulating activity on GLUTag cells, ratio to blank group (GLUTag cells [2]; Table 3, non-degraded, 0.5 mg/ml): 115.6 (c) %; GLP-1 secretion stimulating activity on GLUTag cells, ratio to blank group (GLUTag cells [2]; Table 3, non-degraded, 5 mg/ml): 176.5 (b) %; GLP-1 secretion stimulating activity on GLUTag cells, ratio to blank group (GLUTag cells [2]; Table 3, pep + pan30, 0.5 mg/ml): 140.9 (c) %; GLP-1 secretion stimulating activity on GLUTag cells, ratio to blank group (GLUTag cells [2]; Table 3, pep + pan30, 5 mg/ml): 225.2 (b) %; GLP-1 secretion stimulating activity on GLUTag cells, ratio to blank group (GLUTag cells [2]; Table 3, pep + pan60, 0.5 mg/ml): 149.2 (b) %; GLP-1 secretion stimulating activity on GLUTag cells, ratio to blank group (GLUTag cells [2]; Table 3, pep + pan60, 5 mg/ml): 216.2 (b) %; GLP-1 secretion stimulating activity on GLUTag cells, ratio to blank group (GLUTag cells [2]; Table 3, pep only, 0.5 mg/ml): 150.5 (c) %; GLP-1 secretion stimulating activity on GLUTag cells, ratio to blank group (GLUTag cells [2]; Table 3, pep only, 5 mg/ml): 261.8 (b) %
